Key:
Format in all cases: cell-based
[1] = system: HCT-116 colorectal cancer cell line; assay: CCK-8 proliferation inhibition; conditions: concentration of 30 μM; 72 hours; CCK-8; 30 µM
Method in brief: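 Proliferation over 72 hours of compound treatment was measured with CCK-8 against a 1‰ DMSO control.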

[2] = system: Moraxella catarrhalis (BCA); assay: MIC, two-fold agar dilution (CLSI), clinical isolates
Method in brief: (§1)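 MIC values come from two-fold agar dilution run per CLSI antimicrobial susceptibility testing procedure.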

[3] = system: Streptococcus pneoumoniae (SPN); assay: as above
Method in brief: as §1

[4] = system: Enterococcus faecium (EFM); assay: as above
Method in brief: as §1

[5] = system: Enterococcus faecalis (EFA); assay: as above
Method in brief: as §1

[6] = system: methicillin-resistant Staphylococcus epidermidis (MRSE); assay: as above
Method in brief: as §1

[7] = system: methicillin-sensitive Staphylococcus epidermidis (MSSE); assay: as above
Method in brief: as §1

[8] = system: Escherichia coli (including ESBLs, non-ESBLs); assay: as above
Method in brief: as §1

[9] = system: methicillin-resistant Staphylococcus aureus (MRSA); assay: as above
Method in brief: as §1

[10] = system: methicillin-sensitive Staphylococcus aureus (MSSA); assay: as above
Method in brief: as §1

[11] = system: MGC-803 gastric cancer cell line; assay: CCK-8 proliferation inhibition; conditions: concentration of 30 μM
Method in brief: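 Using media specific to each line (1640 for MGC-803 and Jurkat, F12 for PC3, DMEM high glucose for MCF-7, each with 10% newborn bovine serum), cells at 2000/well were treated for 72 h with serially formulated compounds, then assessed with CCK-8 diluted 1:10.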

[12] = system: A549 lung cancer cell line; assay: CCK-8 proliferation inhibition; conditions: concentration of 30 μM
Method in brief: (§2)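 Plating at 2000 cells/well, then incubation overnight at 37° C. Next, a range of compound concentrations for 72 hours (control 1‰ DMSO). Finally, medium decanted and CCK-8 diluted 1:10 added.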

[13] = system: BEL-7402 liver cancer cell line; assay: CCK-8 proliferation inhibition; conditions: concentration of 30 μM, 72 hours, 30 µM
Method in brief: as §2

CCCC[C@H](CC(=O)NO)C(=O)N1CC2(CCCC2)C[C@H]1C(=O)Nc1ncc(C)s1 [Example 79, (S)-2-((R)-2-(2-(hydroxyamino)-2-oxoethyl)hexanoyl)-N-(5-methylthiazol-2-yl)-2-azaspiro[4.4]nonane-3-amide]
HCT116 inhibition rate/% [1]: 75%
Anti-bacterial activity (MIC) ([2]; strain BCA 14-1): 0.25 µg/mL
Anti-bacterial activity (MIC) ([2]; strain BCA 14-4): 1 µg/mL
Anti-bacterial activity (MIC) ([2]; strain BCA 14-5): 0.25 µg/mL
Anti-bacterial activity (MIC) ([2]; strain BCA 14-6): 1 µg/mL
Anti-bacterial activity (MIC) ([2]; strain BCA 14-7): 0.5 µg/mL
Anti-bacterial activity (MIC) ([2]; strain BCA 14-8): 0.5 µg/mL
Anti-bacterial activity (MIC) ([2]; strain BCA 14-10): 0.25 µg/mL
Anti-bacterial activity (MIC) ([3]; strain SPN 16-2): 0.06 µg/mL
Anti-bacterial activity (MIC) ([3]; strain SPN 16-4): 0.25 µg/mL
Anti-bacterial activity (MIC) ([4]; strain EFM 15-1): 32 µg/mL
Anti-bacterial activity (MIC) ([4]; strain EFM 15-2): 32 µg/mL
Anti-bacterial activity (MIC) ([4]; strain EFM 15-3): 32 µg/mL
Anti-bacterial activity (MIC) ([4]; strain EFM 15-4): 1 µg/mL
Anti-bacterial activity (MIC) ([4]; strain EFM 15-5): 1 µg/mL
Anti-bacterial activity (MIC) ([4]; strain EFM 15-6): 1 µg/mL
Anti-bacterial activity (MIC) ([5]; strain EFA 15-1): 32 µg/mL
Anti-bacterial activity (MIC) ([5]; strain EFA 15-2): 32 µg/mL
Anti-bacterial activity (MIC) ([5]; strain EFA 15-3): 32 µg/mL
Anti-bacterial activity (MIC) ([5]; strain EFA 15-4): 32 µg/mL
Anti-bacterial activity (MIC) ([5]; strain EFA 15-5): 32 µg/mL
Anti-bacterial activity (MIC) ([5]; strain EFA 15-6): 32 µg/mL
Anti-bacterial activity (MIC) ([5]; strain EFA 15-9): 32 µg/mL
Anti-bacterial activity (MIC) ([6]; strain MRSE 15-1): 0.25 µg/mL
Anti-bacterial activity (MIC) ([6]; strain MRSE 15-2): 2 µg/mL
Anti-bacterial activity (MIC) ([6]; strain MRSE 15-3): 2 µg/mL
Anti-bacterial activity (MIC) ([6]; strain MRSE 15-7): 2 µg/mL
Anti-bacterial activity (MIC) ([7]; strain MSSE 15-3): 0.25 µg/mL
Anti-bacterial activity (MIC) ([7]; strain MSSE 15-4): 1 µg/mL
Anti-bacterial activity (MIC) ([7]; strain MSSE 15-5): 1 µg/mL
Anti-bacterial activity (MIC) ([7]; strain MSSE 15-6): 0.03 µg/mL
Anti-bacterial activity (MIC) ([8]; strain ECO+ 15-1): 32 µg/mL
Anti-bacterial activity (MIC) ([8]; strain ECO+ 15-2): > 32 µg/mL
Anti-bacterial activity (MIC) ([8]; strain ECO+ 15-3): > 32 µg/mL
Anti-bacterial activity (MIC) ([8]; strain ECO+ 15-4): > 32 µg/mL
Anti-bacterial activity (MIC) ([8]; strain ECO− 15-1): > 32 µg/mL
Anti-bacterial activity (MIC) ([8]; strain ECO− 15-2): > 32 µg/mL
Anti-bacterial activity (MIC) ([8]; strain ECO− 15-3): > 32 µg/mL
Anti-bacterial activity (MIC) ([8]; strain ECO− 15-4): > 32 µg/mL
Anti-bacterial activity (MIC) ([9]; strain MRSA 15-1): 0.25 µg/mL
Anti-bacterial activity (MIC) ([9]; strain MRSA 15-2): 0.25 µg/mL
Anti-bacterial activity (MIC) ([9]; strain MRSA 15-3): 0.125 µg/mL
Anti-bacterial activity (MIC) ([9]; strain MRSA 15-4): 0.25 µg/mL
Anti-bacterial activity (MIC) ([10]; strain MSSA 15-3): 0.5 µg/mL
Anti-bacterial activity (MIC) ([10]; strain MSSA 15-4): 0.125 µg/mL
Anti-bacterial activity (MIC) ([10]; strain MSSA 15-5): 0.125 µg/mL
Anti-bacterial activity (MIC) ([10]; strain MSSA 15-6): > 32 µg/mL
inhibition at 30 µM ([11]; Homo sapiens, MGC-803, 72 h): > 50%
Inhibition of proliferation, Gastric cancer MGC-803 ([11]; 72 hours, 30 µM): 54%
inhibition at 30 µM ([12]; Homo sapiens, A549, 72 h): > 50%
Inhibition of proliferation, Lung cancer A549 ([12]; 72 hours, 30 µM): 50%
Inhibition of proliferation, Liver cancer BEL-7402 [13]: 77%
